# In patent US20240067655A1 (NEURON23, INC., priority 2020, published 2024):
# Molecular target: T1, wt human LRRK2, catalytic site (Homo sapiens, UniProt Q5S007)
# T1 construct: wt human LRRK2, catalytic site; purchased ThermoFisher/USA
# Assay: TR-FRET LanthaScreen Tb Kinase Activity Assay (Example 71)
# Assay type: biochemical
# Settings: compounds of Table 4, 38 uM ATP, method names only wt human LRRK2, read-out: IC50, Inhibitory Activity Toward LRRK2 (Wt) and LRRK2 (G2019)
# Description: The compounds in Table 4 were tested for their inhibitory effect on LRRK2 kinases according to the following procedures.
# The basic protocol for TR-FRET LanthaScreen Tb Kinase Activity Assay inhibitor studies were performed as follows. LanthaScreen Kinase Activity Assays (ThermoFisher/USA) to evaluate inhibitors were performed by addition of 100 nl of test compound in corresponding DMSO dilutions/5 μl of kinase/fluorescein-ERM(LRRKtide) peptide mixture, 5 μl of ATP into 384 well small volume plates. After incubation for 120 minutes at room temperature, the detection reagents containing Tb-anti-pLRRKtide antibody were added to monitor phosphrylation level of peptide. Then, after 60 min minutes incubation at room temperature plates were read in Envision. Data analysis of emission ratios was according to LanthaScreen Tb Kinase Activity Assay protocol.
# Kinase and assay components were adjusted to final concentrations according to the kit protocol. For LRRK2: 2 nM wt human LRRK2, catalytic site, catalytic site (ThermoFisher/USA), 400 nM peptide, 38 uM ATP in 1× Kinase Buffer A.
# Basic protocol for TR-FRET LanthaScreen Tb Kinase Activity Assay inhibitor studies involved two steps:
# Enzymatic step: Addition of 100 nl of test compound in corresponding DMSO dilutions, 5 μl of kinase/substrate mixture, 5 μl of ATP into 384 well small volume plates. Incubation for 120 minutes at room temperature.
# Detection step: Addition of 10 μl EDTA & antibody, read plate after 60 minutes. Data analysis of emission ratios according to KinEASE assay protocol.
# T1 sequence (Q5S007 1879-2138 limits assumed): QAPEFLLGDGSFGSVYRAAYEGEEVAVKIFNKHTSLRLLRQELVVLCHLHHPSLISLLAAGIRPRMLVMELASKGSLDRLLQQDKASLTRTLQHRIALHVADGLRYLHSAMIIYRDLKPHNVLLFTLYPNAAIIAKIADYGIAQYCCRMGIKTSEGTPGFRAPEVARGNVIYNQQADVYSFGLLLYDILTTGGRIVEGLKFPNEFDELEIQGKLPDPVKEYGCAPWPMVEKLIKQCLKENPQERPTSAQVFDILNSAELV
row,SMILES,IC50 [nM]
1,"Fc1cccc(C(F)(F)F)c1C1=Nc2cn[nH]c2-c2cnn3c2N1CCC3 [Compound 380, 8-[2-fluoro-6-(trifluoromethyl)phenyl]-3,4,7,9,13,14-hexazatetracyclo[7.6.1.02,6.013,16]hexadeca-1(16),2(6),4,7,14-pentaene]",10 to 100
2,"Fc1cccc(Cl)c1C1=Nc2cn[nH]c2-c2cnn3c2N1CC3 [Compound 383, 8-(2-chloro-6-fluoro-phenyl)-3,4,7,9,12,13-hexazatetracyclo[7.5.1.02,6.012,15]pentadec-1(15),2(6),4,7,13-pentaen]",< 10
3,"Fc1cc(OC(F)F)cc(F)c1C1=Nc2cn[nH]c2-c2cc(C(F)(F)F)cc3[nH]cc1c23 [Compound 384, 3-(4-(difluoromethoxy)-2,6-difluorophenyl)-9-(trifluoromethyl)-1,7-dihydropyrazolo[3′,4′:6,7]azepino[3,4,5-cd]indole]",10 to 100
4,"Fc1cc(Cl)cc(F)c1C1=Nc2cn[nH]c2-c2cnn3c2N1CCC3 [Compound 385, 9-(4-chloro-2,6-difluorophenyl)-3,6,7,8-tetrahydro-2,3,5,5a,8a,10-hexaazabenzo[cd]cyclopenta[h]azulene]",10 to 100
5,"Fc1cncc(F)c1C1=Nc2c(Cl)n[nH]c2-c2cnn3c2N1CCC3 [Compound 386, 1-chloro-9-(3,5-difluoropyridin-4-yl)-3,6,7,8-tetrahydro-2,3,5,5a,8a,10-hexaazabenzo[cd]cyclopenta[h]azulene]",10 to 100
6,"Fc1cc(F)c(C2=Nc3cn[nH]c3-c3cnn4c3N2CC4)c(F)c1 [Compound 387, 3-(2,4,6-trifluorophenyl)-2,7-dihydro-1H-2a,4,6,7,9,9a-hexaazadicyclopenta[cd,f]azulene]",< 10
7,"Fc1cccc(Br)c1C1=Nc2cn[nH]c2-c2cnn3c2N1CC3 [Compound 393, 3-(2-bromo-6-fluorophenyl)-2,7-dihydro-1H-2a,4,6,7,9,9a-hexaazadicyclopenta[cd,f]azulene]",10 to 100
8,"N#Cc1ccc(F)c(C2=Nc3cn[nH]c3-c3cnn4c3N2CC4)c1F [Compound 394, 3-(2,7-dihydro-1H-2a,4,6,7,9,9a-hexaazadicyclopenta[cd,f]azulen-3-yl)-2,4-difluorobenzonitrile]",< 10
9,"Cc1n[nH]c2c1N=C(c1c(F)cccc1Cl)N1CCn3ncc-2c31 [Compound 395, 3-(2-chloro-6-fluorophenyl)-5-methyl-2,7-dihydro-1H-2a,4,6,7,9,9a-hexaazadicyclopenta[cd,f]azulene]",< 10
10,"Cc1ccc(F)c(C2=Nc3c(C)n[nH]c3-c3cnn4c3N2CCC4)c1F [Compound 396, 9-(2,6-difluoro-3-methylphenyl)-1-methyl-3,6,7,8-tetrahydro-2,3,5,5a,8a,10-hexaazabenzo[cd]cyclopenta[h]azulene]",< 10
11,"Fc1ccc(C2CC2)c(F)c1C1=Nc2cn[nH]c2-c2cnn3c2N1CC3 [Compound 399, 3-(3-cyclopropyl-2,6-difluorophenyl)-2,7-dihydro-1H-2a,4,6,7,9,9a-hexaazadicyclopenta[cd,f]azulene]",< 10
12,"Fc1cccc(F)c1C1=Nc2cn[nH]c2-c2cc(C(F)(F)F)cc3[nH]cc1c23 [Compound 401, 3-(2,6-difluorophenyl)-9-(trifluoromethyl)-1,7-dihydropyrazolo[3′,4′:6,7]azepino[3,4,5-cd]indole]",< 10
13,"Fc1cc2ncccc2c(F)c1C1=Nc2cn[nH]c2-c2cnn3c2N1CC3 [Compound 404, 3-(5,7-difluoroquinolin-6-yl)-2,7-dihydro-1H-2a,4,6,7,9,9a-hexaazadicyclopenta[cd,f]azulene]",10 to 100
14,"N#Cc1ccc(F)c(C2=Nc3cn[nH]c3-c3cc(C(F)(F)F)cc4[nH]cc2c34)c1F [Compound 405, 2,4-difluoro-3-(9-(trifluoromethyl)-1,7-dihydropyrazolo[3′,4′:6,7]azepino[3,4,5-cd]indol-3-yl)benzonitrile]",< 10
15,"OCc1ccc(F)c(C2=Nc3cn[nH]c3-c3cc(C(F)(F)F)cc4[nH]cc2c34)c1F [Compound 407, (2,4-difluoro-3-(9-(trifluoromethyl)-1,7-dihydropyrazolo[3′,4′:6,7]azepino[3,4,5-cd]indol-3-yl)phenyl)methanol]",< 10

# Second part, the molecule after the results:
row,IC50 [nM],SMILES
1,100 to 1000,"Fc1cccc(F)c1C1=Nc2cn[nH]c2-c2cnn3c2N1CC1(CC1)C3 [Compound 377, 9-(2,6-difluorophenyl)-6,8-dihydro-3H-spiro[2,3,5,5a,8a,10-hexaazabenzo[cd]cyclopenta[h]azulene-7,1′-cyclopropane]]"
2,100 to 1000,"Cc1cccc(C)c1C1=Nc2cn[nH]c2-c2cnn3c2N1CCC3 [Compound 379, 8-(2,6-dimethylphenyl)-3,4,7,9,13,14-hexazatetracyclo[7.6.1.02,6.013,16]hexadeca-1(16),2(6),4,7,14-pentaene]"
3,10 to 100,"Fc1cccc(C(F)F)c1C1=Nc2cn[nH]c2-c2cnn3c2N1CCC3 [Compound 381, 8-[2-(difluoromethyl)-6-fluoro-phenyl]-3,4,7,9,13,14-hexazatetracyclo[7.6.1.02,6.013,16]hexadeca-1(16),2(6),4,7,14-pentaene]"
4,< 10,"Cc1cccc(F)c1C1=Nc2cn[nH]c2-c2cnn3c2N1CC3 [Compound 382, 8-(2-fluoro-6-methyl-phenyl)-3,4,7,9,12,13-hexazatetracyclo[7.5.1.02,6.012,15]pentadeca-1(15),2(6),4,7,13-pentaene]"
5,10 to 100,"Fc1cc(Cl)cc(F)c1C1=Nc2cn[nH]c2-c2cnn3c2N1CC3 [Compound 388, 3-(4-chloro-2,6-difluorophenyl)-2,7-dihydro-1H-2a,4,6,7,9,9a-hexaazadicyclopenta[cd,f]azulene]"
6,< 10,"Fc1ccc(Br)c(F)c1C1=Nc2cn[nH]c2-c2cnn3c2N1CC3 [Compound 389, 3-(3-bromo-2,6-difluorophenyl)-2,7-dihydro-1H-2a,4,6,7,9,9a-hexaazadicyclopenta[cd,f]azulene]"
7,< 10,"Fc1ccc(Cl)c(F)c1C1=Nc2cn[nH]c2-c2cnn3c2N1CC3 [Compound 390, 3-(3-chloro-2,6-difluorophenyl)-2,7-dihydro-1H-2a,4,6,7,9,9a-hexaazadicyclopenta[cd,f]azulene]"
8,< 10,"Cc1n[nH]c2c1N=C(c1c(F)ccc(Br)c1F)N1CCn3ncc-2c31 [Compound 391, 3-(3-bromo-2,6-difluorophenyl)-5-methyl-2,7-dihydro-1H-2a,4,6,7,9,9a-hexaazadicyclopenta[cd,f]azulene]"
9,< 10,"Fc1ccc(Br)c(Cl)c1C1=Nc2cn[nH]c2-c2cnn3c2N1CC3 [Compound 392, 3-(3-bromo-2-chloro-6-fluorophenyl)-2,7-dihydro-1H-2a,4,6,7,9,9a-hexaazadicyclopenta[cd,f]azulene]"
10,< 10,"Cc1n[nH]c2c1N=C(c1c(F)ccc(C#N)c1F)N1CCCn3ncc-2c31 [Compound 397, 2,4-difluoro-3-(1-methyl-3,6,7,8-tetrahydro-2,3,5,5a,8a,10-hexaazabenzo[cd]cyclopenta[h]azulen-9-yl)benzonitrile]"
11,< 10,Cc1n[nH]c2c1N=C(c1c(F)cc(OC(F)F)cc1F)N1CCn3ncc-2c31 [Compound 398]
12,< 10,"Cc1n[nH]c2c1N=C(c1c(F)cccc1F)c1c[nH]c3cc(Cl)cc-2c13 [Compound 400, 9-chloro-3-(2,6-difluorophenyl)-5-methyl-1,7-dihydropyrazolo[3′,4′:6,7]azepino[3,4,5-cd]indole]"
13,100 to 1000,"Fc1cc(Cl)cc(F)c1C1Nc2cn[nH]c2-c2cnn3c2N1CCC3 (stereo not drawn) [Compound 402, 9-(4-chloro-2,6-difluorophenyl)-3,6,7,8,9,10-hexahydro-2,3,5,5a,8a,10-hexaazabenzo[cd]cyclopenta[h]azulene]"
14,< 10,"OCc1cc(F)c(C2=Nc3cn[nH]c3-c3cc(C(F)(F)F)cc4[nH]cc2c34)c(F)c1 [Compound 406, (3,5-difluoro-4-(9-(trifluoromethyl)-1,7-dihydropyrazolo[3′,4′:6,7]azepino[3,4,5-cd]indol-3-yl)phenyl)methanol]"
15,10 to 100,COc1cc(F)c(C2=Nc3cn[nH]c3-c3cc(C(F)(F)F)cc4[nH]cc2c34)c(F)c1 [Compound 408]
